Source: article PMC9917184, “Synthesis and Biological Evaluation of Potential Oncoimmunomodulator Agents” (International Journal of Molecular Sciences, 2023)

Tests used:
Type in all cases: cell-based, human
c-Myc gene expression = c-Myc gene expression by RT-qPCR in MCF-7; details: MCF-7, 100 µM, 48 h, control = 100
Procedure: (§1) We also studied the effect of compounds 3, 5, and 7 on both c-Myc and PD-L1 gene expression by RT-qPCR. For this study, we treated MCF-7 cells with 100 µM of the abovementioned compounds, and DMSO was used as a negative control and BMS-8 as a reference compound. After 48 h, cells were lysated, and after the extraction of their mRNA, a RT-pPCR assay was performed as described in the Experimental section.
(§2) MCF-7 cells at 70–80% confluence were collected, and 1.5 × 10^5 cells were placed in a six-well plate in 1.5 mL of medium. After 24h, cells were incubated with the corresponding compounds for 48 h. Cells were collected, and the total cellular RNA from MCF-7 cells was isolated using the Ambion RNA extraction kit according to the manufacturer’s instructions. The cDNA was synthesized by MMLV-RT with […] of extracted RNA and oligo(dT)15 according to the manufacturer’s instructions. Genes were amplified by a thermal cycler and StepOnePlus™ TaqMan® probes. TaqMan® Gene Expression Master Mix Fast containing the appropriate buffer for the amplification conditions, dNTPs, thermostable DNA polymerase enzymes, and a passive reference probe was used. To amplify each of the genes, the predesigned primers sold by Life Technologies TaqMan® Gene Expression Assays, Hs99999903-m1 (β-actin), Hs00153408-m1 (c-Myc), and Hs00204257-m1, (PD-L1) were used.

HT-29 = HT-29 cell viability in co-culture with Jurkat T cells (flow cytometry count); details: 24 h; for viability at 100 µM: Homo sapiens, HT-29/Jurkat T co-culture, IFN-γ stimulated, read-out: percentage of living HT-29 cells relative to non-treated co-cultures
Summary of the method: (§3)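 HT-29, MCF-7 or A-549 cells in IFN-γ (10 ng/mL) medium were co-cultured with 5 × 10^5 Jurkat T cells per well and 100 µM compound (DMSO control) for 24 h. Jurkat cells from the supernatant and trypsinized cancer cells were PFA-fixed and counted by flow cytometry. Living cells were expressed as % of untreated co-culture.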

c-Myc = experiment: Immunofluorescence microscopy of c-Myc in MCF-7; details: MCF-7, 24 h of treatment
Description: We also observed the effect of triazole derivatives 3, 5 and 7 on both targets in MCF-7 by immunofluorescence microscopy (see Figure 2). We stained both targets with anti-PD-L1 conjugated to AlexaFluor®647 (red in Figure 2), as well as anti-c-Myc conjugated to fluorescein (green in Figure 2), to determine the amount of both targets. The nucleus was stained with Hoechst (blue in Figure 2).
We observed that in the DMSO control, c-Myc was located in the nucleus of the cell and the nucleus membrane nearby, and PD-L1 was preferentially positioned in the membrane or cytosol, favoring the contact between surrounding cells.
For immunofluorescence microscopy of the microtubule network, […] cells were plated on cover glass and incubated with the selected compounds. Cells were then fixed in 4% formaldehyde (in PBS pH 7.4) for 20 min at room temperature and permeabilized with PBS-Triton X-100 0.5% for 1 min at room temperature. Direct immunostaining was carried out for 1 h at room temperature with FITC Mouse monoclonal Anti-c-Myc (ab223913) and Alexa Fluor® 647 Rabbit monoclonal Anti-PD-L1 (ab215251). Then, cells were washed in PBS, and cover glasses were mounted with a drop of ProLong® antifade solution (Invitrogen). The cytoskeleton was imaged by a confocal laser scanning microscope (CLSM) Leica SP5 with a Leica inverted microscope, equipped with 20x objective. Each image was recorded with the CLSM’s spectral mode selecting specific domains of the emission spectrum. The FITC fluorophore was excited at 488 nm with an argon laser, and its fluorescence emission was collected between 496 nm and 535 nm.

A-549 = A-549 cell viability in co-culture with Jurkat T cells (flow cytometry count); details: 24 h; for viability at 100 µM: Homo sapiens, A549, A-549/Jurkat T co-culture, IFN-γ stimulated, read-out: percentage of living A-549 cells relative to non-treated co-cultures
Summary of the method: as §3

IL-6 = IL-6 secretion to the media by ELISA; details: 100 μM, 24 h, control = 100
Procedure: We determined the effect of these compounds on the secretion of IL-6 in monocultures of MCF-7 cells, to establish the effect on cancer cells in monocultures of immune cells THP-1 and in co-cultures of MCF-7 and THP-1 (1:5 proportion). Assays were performed by ELISA using cell media after treatments with selected compounds at 100 μM for 24 h.

PD-L1 gene expression = PD-L1 gene expression by RT-qPCR in MCF-7; details: MCF-7, 100 µM, 48 h, control = 100
Procedure: as §1, §2

[1] = co-cultured with Jurkat T cells, 100 μM

Compound	% c-Myc gene expression (c-Myc gene expression) [%]	viability at 100 µM (HT-29) [%]	c-Myc localisation (confocal images) (c-Myc)	viability at 100 µM (A-549) [%]	Percentage of secreted IL-6 to the media (IL-6; MCF7 + THP-1 co-culture (1:5)) [%]	Percentage of secreted IL-6 to the media (IL-6; MCF7 monoculture) [%]	Percentage of secreted IL-6 to the media (IL-6; THP-1 monoculture) [%]	% PD-L1 gene expression (PD-L1 gene expression) [%]	inhibition rate of HT-29 cell viability (HT-29; [1])	inhibition rate of A-549 cell viability (A-549; [1])
COc1ccc(C(OCCc2ccc(CCn3cc(-c4ccccc4Br)nn3)cc2)(c2ccccc2)c2ccc(OC)cc2)cc1 [Compound 7, 1-(4-(2-(bis(4-methoxyphenyl)(phenyl)methoxy)ethyl)phenethyl)-4-(2-bromophenyl)-1H-1,2,3-triazole]	12 ± 5	52 ± 6	aggregated in the nucleus of the cells	100 ± 4	115 ± 4	91 ± 39	158 ± 11	36 ± 9	–	–
COc1ccc(C(OCCc2ccc(CCn3cc(-c4cccc(Br)c4)nn3)cc2)(c2ccccc2)c2ccc(OC)cc2)cc1 [Compound 5, 1-(4-(2-(bis(4-methoxyphenyl)(phenyl)methoxy)ethyl)phenethyl)-4-(3-bromophenyl)-1H-1,2,3-triazole]	33 ± 5	68 ± 3	aggregated around the nucleus membrane	105 ± 3	137 ± 24	73 ± 29	173 ± 24	21 ± 8	–	–
Cc1c(COc2ccc(CN3CCCCC3C(=O)O)cc2Br)cccc1-c1ccccc1 (centres unmarked) [BMS-8, reference compound]	30 ± 10	34 ± 5	not altered	111 ± 9	–	41 ± 65	–	31 ± 12	–	–
COc1ccc(C(OCCc2ccc(CCn3cc(-c4ccc(Br)cc4)nn3)cc2)(c2ccccc2)c2ccc(OC)cc2)cc1 [Compound 3, 1-(4-(2-(bis(4-methoxyphenyl)(phenyl)methoxy)ethyl)phenethyl)-4-(4-bromophenyl)-1H-1,2,3-triazole]	50 ± 7	111 ± 5	preferentially in the nucleus of the cells	75 ± 7	156 ± 12	92 ± 4	183 ± 5	33 ± 10	not active	active
